Measured values reported in patent publication US20250361214A1, “TRIAZINE LIPIDS, LIPID SYNTHESIS, AND METHODS FOR INHIBITING CANONICAL NFKB TRANSCRIPTIONAL ACTIVITY” (University of Kentucky Research Foundation, priority 2022, published 2025).
Like-named read-outs stand apart in the source and are kept apart here.

Experiments:
[1] = system: bone marrow derived macrophages; test: in vitro; type: cell-based
Procedure: Cell Culture of Bone Marrow-Derived Macrophages. […] After 7 days, the cells were transferred to tissue culture 96 well plates (Corning) at a density of 100,000 in 20 μL of medium and allowed to settle overnight for subsequent assays.
Lactate Dehydrogenase Release (LDH) Toxicity Assay. For determination of cytotoxicity, mature bone marrow-derived macrophages (BMDM) were treated with 20 μL of the lipids (concentrations denoted in figure legend) diluted in 20 mM HEPES buffer, with HEPES buffer as negative control and 10% Triton X-100 as positive control. After 24 hours, the 96 well plates were centrifuged at 200×g for 5 minutes to remove debris and 100 μL of media was transferred to an untreated flat-bottom 96 well plate. Next, 100 μL of LDH reaction reagent purchased from Cayman Chemical (Ann Arbor, MI) was added to each and allowed to sit for 30 minutes at 37° C. Absorbance at 490 and 680 nm were measured using a BioTek Synergy H1 plate reader and the data were processed using Microsoft Excel. Mean values from triplicates are shown for one of two independent experiments.

[2] = Size and charge determination of nanoparticles (Zetasizer Nano ZS), Example 1; type: physicochemical; conditions: for Size: nanoparticles of pure lipid, 1 mM, 25° C. (Table 1); for Charge: zeta potential
Description: Size and Charge Determination.

[3] = Differential scanning calorimetry, transition temperature (Tm) of lipids; type: physicochemical; conditions: liposomes of pure lipid, 10 mM in 20 mM HEPES, DSC
Procedure: Differential Scanning calorimetery. The transition temperature (Tm) of the lipids was determined using a multicell differential scanning calorimeter (TA Instruments). Liposomes were made with triazine lipids at a concentration of 10 mM in 20 mM HEPES buffer. These were heated to 60° C. and sonicated until the solution was translucent. For Tm determination, 250 μL of the liposome solution was transferred into reusable hastelloy ampoules while 250 μL of the HEPES solution was transferred to the third ampoule, leaving the reference ampoule empty. […] Data was collected over a range of 10-110° C. at a rate of 2° C. min-1 in a heat-cool-heat cycle. After the run was complete, the CpCalc 2.1 software package was used to convert the raw data into a molar heat capacity and the data from the second heating cycle were processed using Microsoft Excel.

BALB/c mice [4] = test: In vivo hAAT transfection efficiency, serum ELISA and ALT; design: species or system mouse; conditions: LPs (50% cationic lipid, 50% DOPE), 10,000 ng hAAT plasmid DNA i.p., 72 hours
Procedure: To assess in vivo hAAT transfection efficiency, mice were administered 200 μL nanoparticles or PBS vehicle i.p. at the doses indicated in the figure legend. Seventy-two hours after injection the mice were bled again for assessment of ALT levels and hAAT expression. hAAT levels were determined via ELISA using serum diluted 1:1 in PBS containing 0.05% casein (PBS-C; 124250; Beantown Chemical), as described previously.^38

BALB/c mice [5] = test: Anti-hAAT antibody titers and IgG subclass ratios; type: in vivo, mouse
Procedure: To assess the presence of antibodies toward hAAT, 50 μL of hAAT (OriGene #RG202082) was plated at 2 μg/mL in carbonate buffer, pH 9.7, on a 96 well high binding plate (Greiner #82050-720) and incubated overnight at 4° C. The next day, the plates were washed with PBS containing 0.1% Tween-20 (PBS-T) and blocked for 1 hour with PBS-C at 37° C. After blocking, serum samples were plated at dilutions ranging from 1:100 to 1:1,000,000 and incubated at 37° C. for 2 hours. Secondary antibody (goat anti-mouse IgG HRP; Invitrogen #16066) diluted 1:2000 was applied for 30 min at 37° C., followed by a 30 min. incubation with tetramethylbenzidine (Rockland). Absorbance at 450 nm was recorded using a BioTek Synergy H1 microplate reader. Reciprocal endpoint titers were determined by plotting A450 values versus known dilutions, calculating the slope of that line, and dividing the slope by two times the average of the blank (no serum) wells.
Anti-hAAT IgG subclass ratios were assessed as described above, using a single 1:100 sample dilution and the following detection antibodies: goat anti-mouse IgG1-HRP (Abcam ab98693) at 1:10,000, IgG2a-HRP (Abcam ab98698) at 1:5000, IgG2b-HRP (Abcam ab98703) at 1:10,000 and IgG3 (Jackson 115-035-209) at 1:5000. Subclass ratios were calculated by dividing the absorbance of each subclass by that of IgG1 for each individual mouse.

canonical NFKB = test: THP-1-Blue NFKB reporter (SEAP) assay; type: cell-based, human; conditions: Homo sapiens, 24 h, read-out: IC50, canonical NFKB inhibition
[6] = Characterization of nanoparticles (size, zeta potential, DNA encapsulation), Example 2; type: physicochemical; conditions: LNPs made with the cationic lipid
Procedure: The concentration of DNA in LNPs after dialysis was quantified using an AccuClear® Ultra High Sensitivity dsDNA Quantification Kit (Biotium #31027) and quantified on a BioTek Synergy H1 plate reader. Encapsulation efficiencies were determined by comparing the amount of DNA in the LNP solution vs. the DNA solution used to make them, after disrupting the LNPs with 0.5% Cl2E10 (Abcam #ab146563) and adjusting for volume differences (i.e.: excess volume added during dialysis and dilution volume during ethanol mixture).

C57BL/6J mice = test: In vivo toxicity of cationic lipid nanoparticles (ALT, IL-6, SCr, mortality); conditions: 20 mM lipid, i.p., versus baseline
[7] = nanoparticles of pure lipid (Table 1)

CCCCCCCCCCCCCCCCCCN(CCCCCCCCCCCCCCCCCC)c1nc(NCCS)nc(NCCC(=O)O)n1 [Lipid 6]
IC50 [1]: 988 µM
PDI [2, 7]: 0.27 ± 0.01
Size [2]: 93 ± 2 nm
Charge [2, 7]: −71 ± 5 mV
Tm [3]: 40 °C

CCCCCCCCCCCCCCCCCCN(CCCCCCCCCCCCCCCCCC)c1nc(NCCCN)nc(NCCC(=O)O)n1 [Lipid 12]
IC50 [1]: 227 µM
PDI [2, 7]: Unstable Unstable
Size [2]: Unstable Unstable
PDI ([2]; unstable nanoparticles of lipids 11 and 12, text): 0.51
Charge [2, 7]: 70 ± 5 mV
Tm [3]: 42 °C

CCCCCCCC/C=C\CCCCCCCC(=O)OCC(C[N+](C)(C)C)OC(=O)CCCCCCC/C=C\CCCCCCCC.[Cl-] (stereo not drawn) [DOTAP, 1,2-dioleoyl-3-trimethylammonium propane, reference compound]
average hAAT levels in serum (BALB/c mice [4]): 3 ng/mL
increase of anti-hAAT titers (BALB/c mice [5]; 25 μg hAAT protein administered with 1 mM lipid, day 14): 10 fold
anti-hAAT IgG titers (BALB/c mice [5]; transgene delivery, 10 μg hAAT DNA, day 14, versus untreated mice): significantly higher anti-hAAT titers than untreated mice
Th1/Th2 response (ratios of IgG2a, 2b, and 3 over IgG1) (BALB/c mice [5]; transgenic hAAT delivery with LPs): balanced Th1/Th2 response
IC50 (canonical NFKB): 28 µM
encapsulation of DNA (general) [6]: 70-80%
interleukin 6 (IL-6) (C57BL/6J mice): neither these nor the IL-6 elevation in DOTAP-treated mice reached statistical significance

CCCCCCCCCCCCN(CCCCCCCCCCCC)c1nc(NCCS)nc(NCCC(=O)O)n1 [Lipid 5]
IC50 [1]: 679 µM
PDI [2, 7]: 0.40 ± 0.00
Size [2]: 87 ± 2 nm
Charge [2, 7]: −73 ± 6 mV
Tm [3]: < 10 °C

CCCCCCCCCCCCN(CCCCCCCCCCCC)c1nc(NCCC(=O)O)nc(NCCC(=O)O)n1 [Lipid 1]
IC50 [1]: 1100 µM
PDI [2, 7]: 0.24 ± 0.02
Size [2]: 124 ± 2 nm
Charge [2, 7]: −63 ± 4 mV
Tm [3]: < 10 °C

CCCCCCCCCCCCCCCCCCN(CCCCCCCCCCCCCCCCCC)c1nc(NCCCN(C)C)nc(NCCCN(C)C)n1 [Lipid 10]
IC50 ([1]; LDH release, 24 hours (Table 1), read-out: ID50 (the source's name)): 261 µM
PDI [2, 7]: 0.28 ± 0.01
Size [2]: 186 ± 1 nm
Charge [2, 7]: 47 ± 1 mV
Tm [3]: 28 °C
